From patent US7829533B2, “Cyclosporin analog formulations” (Isotechnika Inc., priority 2001, dated 2010)

Assay: Toxicokinetic study in the rabbit model (serum creatinine, hematology, organ examination)
Experimental: On Days 1 and 7, blood samples were collected prior to drug administration and at 0.5, 1, 2, 4, 8, 12, 18, and 24 hours post-dose to generate a pharmacokinetic profile. Other evaluated parameters included clinical observations, body weight, food consumption, hematology, clinical chemistry, gross pathology, and histopathological examination of selected tissues/organs.

In the case of C=C/C=C/C[C@@H](C)[C@@H](O)[C@H]1C(=O)N[C@@H](CC)C(=O)N(C)CC(=O)N(C)[C@@H](CC(C)C)C(=O)N[C@@H](C(C)C)C(=O)N(C)[C@@H](CC(C)C)C(=O)N[C@@H](C)C(=O)N[C@H](C)C(=O)N(C)[C@@H](CC(C)C)C(=O)N(C)[C@@H](CC(C)C)C(=O)N(C)[C@@H](C(C)C)C(=O)N1C [ISATX247], the “Examination of organs: spermatogenesis” value (male rabbits, 15 mg/kg) was “decrease in spermatogenesis”, the Examination of organs (rabbits, 5 mg/kg) was “no significant abnormalities” and the Examination of organs (rabbits, 10 mg/kg) was “no significant abnormalities”. The “Interstitial fibrosis in the kidneys” value (rabbits, 10 mg/kg cyclosporine A, 5 or 10 mg/kg ISATx247) was “no evidence of interstitial fibrosis”, the “Increase in serum creatinine levels” value (rabbits, 15 mg/kg/day) was “did not result in any significant increase” and the “Changes in hematological parameters” value (rabbits, 30-day study) was “No significant changes”.
